{"source": "patent US20180008593A1", "about": "(Purdue Pharma L.P., priority 2005, published 2018)", "key": {"[1]": {"system": "patients with severe chronic pain", "assay": "Laxative intake / mean laxative dose, Example 1", "assay_type": "in vivo, human", "method": "d) Laxative intake/mean laxative dose, which was calculated from the respective case report forms (CRF) entries. An analysis of the mean laxative dose during the last seven days was performed for patients who took only one laxative during the entire study. Entries from the medication record CRF page were used for all calculations (laxatives were identified by the WHO ATC Code A06A). For laxative intake number of days with laxation during the last 7 days and the percentage of days with laxation during the last 7 days were calculated for each study visit. In addition, the percentage of days with laxation during the whole maintenance phase and during the follow-up phase was calculated."}, "[2]": {"system": "experimental human pain model, healthy volunteers", "assay": "Pain-related evoked potentials (EEG) after CO2 stimulation of the nasal mucosa, Example 4", "assay_type": "in vivo", "conditions": "for Magnitude of reduction of amplitude P1N1 at C4 compared to baseline: 60% CO2", "method": "This was a single site, single dose, double blind, placebo-controlled, 5-treatment, 5-period, randomized, balanced crossover study in healthy adult male and female subjects. […] Subjects were allocated each of the 5 treatments described in the synopsis according to a random allocation schedule (RAS). There was a 7-day washout period\nAnalgesic effects were assessed by means of an experimental human pain model based on the chemosomatosensory pain-related cortical potentials (CSSEPs) and pain-ratings after specific phasic nociceptive stimulation of the nasal mucosa with gaseous CO2. In addition, intensity estimates of tonic pain produced by stimulation of the nasal mucosa with dry air at controlled flow and temperature were employed.\nWithin the present pain model, the following were used as indicators of analgesia: • post-treatment decrease in pain-ratings and/or • post-treatment decrease in amplitudes of pain-related evoked potentials and/or • post-treatment increase in latencies of pain-related evoked potentials, relative to the pretreatment values.\n1. Base-to-peak amplitudes P1, N1 and P2, peak-to-peak amplitudes P1 N1 and N1P2 of pain related evoked potentials 2. Latencies P1, N1 and P2 of pain-related evoked potentials 3. Intensity estimates of phasic (C02-) pain 4. Intensity estimates of tonic pain\nIn the first 20 minutes, 40 phasic CO2-stimuli were applied (20 stimuli at a concentration of 70% and 20 at a concentration of 60%, interstimulus interval 30 s). In response to these stimuli, pain-related potentials and subjective intensity estimates were recorded.\n(§1) CO2-stimuli were mixed in a constantly flowing air stream with controlled temperature (36.5° C.) and humidity (80% relative humidity) presented to the left nostril (stimulus duration 200 ms, interstimulus interval 30 s). […] During intervals between phasic stimuli subjects performed a simple tracking task on a video screen. Using a joystick, they had to keep a small square inside a larger one that randomly moved around.\nThe EEG was recorded from 5 positions of the international 10/20 system (Cz, C3, C4, Fz and Pz; see FIG. 40) referenced to linked earlobes (A1+A2). Possible eye blink artifacts were monitored from an additional site (Fp2/A1+A2). Stimulus linked EEG segments of 2040 ms duration were sampled with a frequency of 250 Hz (band pass 0.2-30 Hz, pre-stimulus period 512 ms). The recorded analog EEG segments were then converted to digital and filed electronically. The average value for each recording position was separately calculated, discarding all eye blink contaminated records. By this procedure pain-related evoked potentials were obtained in response to the painful CO2 stimuli. Base to peak amplitudes P1, N1 and P2, the peak to peak amplitudes P1 N1 and N1 P2 and the latencies of P1, […] and P2 were measured. Wherever the time of measurement was used in the data analysis, the mid-time of a session was taken. FIG. 40 presents the components of the pain-related evoked potentials."}, "[3]": {"system": "experimental human pain model, healthy volunteers", "assay": "Intensity estimates of phasic (CO2) pain, Example 4", "assay_type": "in vivo", "conditions": "70% CO2; 45 mg naloxone with 20 mg oxycodone", "method": "In the first 20 minutes, 40 phasic CO2-stimuli were applied (20 stimuli at a concentration of 70% and 20 at a concentration of 60%, interstimulus interval 30 s). In response to these stimuli, pain-related potentials and subjective intensity estimates were recorded. Subsequently, tonic pain was induced for 16 minutes and subjects had to rate the intensity of the dull, burning pain.\nas §1\nWithin 3-4 seconds after presentation of each CO2 stimulus, subjects compared the perceived intensity to a standard stimulus (70% v/v CO2) presented at the beginning of the first session of each trial day. […] The intensity of the standard stimulus was defined as 100 Estimation Units (EU). The mid-time of a session was regarded as time of measurement. Intensity estimates of the CO2 stimuli (60% and 70%) were evaluated separately for each concentration. On a trial day, the ratings of each post-treatment session were evaluated relative to base line values. […]"}, "[4]": {"system": "patients with severe chronic pain of tumour and non-tumour origin", "conditions": "for Mean Pain, Mean (SD) V3: V3 end of titration; for Mean Pain, Mean (SD) V5: V5 end of maintenance", "experimental": "The pre-randomization phase consisted of screening and titration/run-in. Following screening, patients entered either a titration or run-in period. Patients with insufficient pain pre-treatment entered a minimum 2-week titration period and were individually titrated and stabilized at an oxycodone dose of 40 mg, 60 mg or 80 mg per day. Patients on stable oxycodone pre-treatment at screening (between 40-80 mg/day) and with concomitant constipation, entered a 1 week run-in period and were eligible for the maintenance phase without prior titration. For all patients, the dose of oxycodone could be adjusted during titration or run-in and investigators maintained compulsory telephone contact every 2nd day to assess pain control and make dose changes.\n(§2) a) Mean Pain during the last 7 days prior to each visit, based on the patient's twice-daily assessment of pain intensity using the 0-100 numerical analogue scale (NAS) (0=no pain and 100=worst imaginable pain). Mean Pain was calculated for each study visit as the mean value of the daily mean values of all patient's diary entries from the last 7 days. b) Mean bowel function: patient's assessment, at each study visit, of bowel function during the last 7 days prior to each visit. Mean bowel function was calculated from the mean of the three 0-100 NAS scores: ease of defecation (0=easy/no difficulty, 100=severe difficulty), feeling of incomplete bowel evacuation (0=not at all, 100=very strong), and judgment of constipation (0=not at all, 100=very strong). Secondary efficacy variables of interest included among others: c) Global assessment of efficacy, tolerability and preference. […] Tolerability was measured using the same 0 to 7 numerical analogue scale."}, "[5]": {"system": "bowel function of pain patients on oxycodone with need for laxatives", "conditions": "for Mean Bowel Function Score, Mean (SD) V3: V3 end of titration; for Mean Bowel Function Score, Mean (SD) V5: V5 end of maintenance", "experimental": "as §2\nMean bowel function was calculated for each study visit from the mean of the three NAS values ease/difficulty of defecation, feeling of incomplete bowel evacuation and judgment of constipation.\nIn addition, two-sided 95% CIs (CI, confidence interval) for the difference in means between the treatment groups were provided. […] These analyses were performed for the ITT and PP populations.\nThe parameter estimates derived were taken to display a surface plot of the whole dose range investigated. Moreover, a contour plot of the bowel function with a granulation of 10 was performed."}, "[6]": {"conditions": "oral administration; extensive first-pass-metabolism; cited from earlier work"}, "[7]": {"system": "rats physically dependent on oxycodone", "assay": "Naloxone-precipitated withdrawal in oxycodone-dependent rats (Gellert-Holtzman global rating, graded and checked signs), Example 5", "conditions": "i.v.", "experimental": "Rats were implanted with Alzet 2ML 1 osmotic minipumps infusing either saline vehicle or oxycodone at 1.5 mg/kg/h for 7 days as described above. […] The complete parametric design for oxycodone-pump implanted rats required testing rats with vehicle:vehicle and oxycodone:vehicle.\nSigns of physical dependence were evaluated in rats intravenously administered the drugs, and then immediately placed back in their home cages for a 60-min observation period. […] The table is divided into Graded Signs and Checked Signs, and assigned a weighted factor. The rats were evaluated for these signs during the 60 min observation period, the scores were collected, and a combined Global Score was assigned to each rat. Data were analyzed by combining the graded signs of escape attempts and wet-dog shakes into a single score of Grades Signs during each 15-min interval for 60-min. Checked signs were analyzed during each 15-min interval for 60-min.\nThe rats were assessed in 15-min intervals for both graded and checked signs for a total of 60 min. The graded signs of escape attempts and wet-dog shakes were tallied, whereas, checked signs such as diarrhea, profuse salivation, chromodactorrhea, etc. were noted as being either absent or present during the 15-min period. Both graded and checked signs were assigned a numeric score based on studies by Gellert and Holtzman (1978), and the total value for each animal was added to provide a global rating.\nThe incidence of checked signs during opioid withdrawal was also analyzed statistically within each time interval at 0-15, 15-30, 30-45 and 45-60 minutes. The data was analyzed within each time interval using contingency table Person's Chi Square analysis (Sigma Stat Statistical Software, SPSS, Inc.) to evaluate the X2 value. X2 values exceeding the critical value for 7 of 14.1 were considered statistically significant intervals for that checked behavioral sign."}, "[8]": {"conditions": "naloxone 10 mg/day + oxycodone 40-80 mg/day"}, "[9]": {"conditions": "naloxone 20 mg/day + oxycodone 40-80 mg/day"}, "[10]": {"conditions": "naloxone 40 mg/day + oxycodone 40-80 mg/day"}, "[11]": {"conditions": "ITT non-missing, naloxone 10 mg/day + oxycodone 40-80 mg/day"}, "[12]": {"conditions": "ITT non-missing, naloxone 20 mg/day + oxycodone 40-80 mg/day"}, "[13]": {"conditions": "ITT non-missing, naloxone 40 mg/day + oxycodone 40-80 mg/day"}, "[14]": {"conditions": "PP, naloxone 20 mg/day + oxycodone 40-80 mg/day"}, "[15]": {"conditions": "PP, naloxone 40 mg/day + oxycodone 40-80 mg/day"}, "[16]": {"conditions": "ITT/LOCF, naloxone 10 mg/day + oxycodone 40-80 mg/day"}, "[17]": {"conditions": "ITT/LOCF, naloxone 20 mg/day + oxycodone 40-80 mg/day"}, "[18]": {"conditions": "ITT/LOCF, naloxone 40 mg/day + oxycodone 40-80 mg/day"}}, "note": "Several values for one entry are separate records, joined by “and”; a condition that tells them apart may be missing. Equal entries are not always repeated. Where two headings read alike, the source gives them in different places."}
{"smiles": "C=CCN1CC[C@]23c4c5ccc(O)c4O[C@H]2C(=O)CC[C@@]3(O)[C@H]1C5", "note": "[Naloxone, naloxone]", "values": [{"measurement": "Mean number of days with laxative intake during the last 7 days prior to the end of maintenance", "setting": "[1]; [8]", "value": "2.6±3.34"}, {"measurement": "Percentage of days (mean±SD) with laxation during the entire maintenance phase", "setting": "[1]; [8]", "value": "36.5±33.50"}, {"measurement": "Mean number of days with laxative intake during the last 7 days prior to the end of maintenance", "setting": "[1]; [9]", "value": "2.0±3.14"}, {"measurement": "Percentage of days (mean±SD) with laxation during the entire maintenance phase", "setting": "[1]; [9]", "value": "31.3±41.38"}, {"measurement": "Mean number of days with laxative intake during the last 7 days prior to the end of maintenance", "setting": "[1]; [10]", "value": "1.6±2.93"}, {"measurement": "Percentage of days (mean±SD) with laxation during the entire maintenance phase", "setting": "[1]; [10]", "value": "27.8±41.25"}, {"measurement": "Magnitude of reduction of amplitude P1N1 at C4 compared to baseline", "setting": "[2]; 20 mg oxycodone in combination with 5 mg naloxone", "value": 24.5, "unit": "%"}, {"measurement": "Magnitude of reduction of amplitude P1N1 at C4 compared to baseline", "setting": "[2]; 20 mg oxycodone in combination with 15 mg naloxone", "value": 23.7, "unit": "%"}, {"measurement": "Dose of naloxone PR that does not significantly influence the analgesic effect (EEG) of oxycodone", "setting": "[2]; based on 20 mg oxycodone PR", "value": "below 15 mg"}, {"measurement": "Intensity estimates of phasic pain stimuli, naloxone effect", "setting": "[3]", "value": "seemed to antagonize partly the oxycodone effect"}, {"measurement": "Mean Pain, Mean (SD) V3", "setting": "[4]; [11]", "value": "35.9 (16.3)"}, {"measurement": "Mean Pain, Mean (SD) V3", "setting": "[4]; [12]", "value": "39.8 (18.4)"}, {"measurement": "Mean Pain, Mean (SD) V5", "setting": "[4]; [11]", "value": "37.2 (17.3)"}, {"measurement": "Mean Pain, Mean (SD) V5", "setting": "[4]; [12]", "value": "37.5 (20.5)"}, {"measurement": "Mean Pain, Mean (SD) V5", "setting": "[4]; [13]", "value": "38.7 (17.0)"}, {"measurement": "Mean Pain, Mean (SD) V3", "setting": "[4]; [14]", "value": "40.1 (20.0)"}, {"measurement": "Mean Pain, Mean (SD) V3", "setting": "[4]; [15]", "value": "39.0 (16.1)"}, {"measurement": "Mean Pain, Mean (SD) V5", "setting": "[4]; PP, naloxone 10 mg/day + oxycodone 40-80 mg/day", "value": "38.8 (18.4)"}, {"measurement": "Mean Pain, Mean (SD) V5", "setting": "[4]; [14]", "value": "36.1 (19.5)"}, {"measurement": "Mean Pain, Mean (SD) V5", "setting": "[4]; [15]", "value": "38.7 (16.6)"}, {"measurement": "Mean Bowel Function Score, Mean (SD) V3", "setting": "[5]; [11]", "value": "53.5 (22.2)"}, {"measurement": "Mean Bowel Function Score, Mean (SD) V3", "setting": "[5]; [12]", "value": "51.3 (21.6)"}, {"measurement": "Mean Bowel Function Score, Mean (SD) V3", "setting": "[5]; [13]", "value": "48.2 (20.6)"}, {"measurement": "Mean Bowel Function Score, Mean (SD) V5", "setting": "[5]; [11]", "value": "40.3 (23.1)"}, {"measurement": "Mean Bowel Function Score, Mean (SD) V5", "setting": "[5]; ITT non-missing, naloxone 10 mg/day + oxycodone 40-80 mg/day, listed as naloxone", "value": "40.3 (±23.09) and 40.3 (±23.1)"}, {"measurement": "Mean Bowel Function Score, Mean (SD) V5", "setting": "[5]; [12]", "value": "31.3 (25.8)"}, {"measurement": "Mean Bowel Function Score, Mean (SD) V5", "setting": "[5]; ITT non-missing, naloxone 20 mg/day + oxycodone 40-80 mg/day, listed as naloxone", "value": "31.3 (±25.82) and 31.3 (±25.8)"}, {"measurement": "Mean Bowel Function Score, Mean (SD) V5", "setting": "[5]; [13]", "value": "26.1 (25.1)"}, {"measurement": "Mean Bowel Function Score, Mean (SD) V5", "setting": "[5]; ITT non-missing, naloxone 40 mg/day + oxycodone 40-80 mg/day, listed as naloxone", "value": "26.1 (±25.08) and 26.1 (±25.1)"}, {"measurement": "Mean Bowel Function Score, Mean (SD) V3", "setting": "[5]; [16]", "value": "53.6 (22.8)"}, {"measurement": "Mean Bowel Function Score, Mean (SD) V3", "setting": "[5]; [17]", "value": "49.9 (23.1)"}, {"measurement": "Mean Bowel Function Score, Mean (SD) V3", "setting": "[5]; [18]", "value": "47.7 (20.5)"}, {"measurement": "Mean Bowel Function Score, Mean (SD) V5", "setting": "[5]; [16]", "value": "40.1 (24.7)"}, {"measurement": "Mean Bowel Function Score, Mean (SD) V5", "setting": "[5]; [17]", "value": "33.2 (28.4)"}, {"measurement": "Mean Bowel Function Score, Mean (SD) V5", "setting": "[5]; [18]", "value": "26.5 (25.7)"}, {"measurement": "Mean (±SD) bowel function", "setting": "[5]; ITT, Visit 4, naloxone 10 mg/day + oxycodone 40-80 mg/day", "value": "42.1 (±25.53)"}, {"measurement": "Mean (±SD) bowel function", "setting": "[5]; ITT, Visit 4, naloxone 20 mg/day + oxycodone 40-80 mg/day", "value": "34.2 (±30.04)"}, {"measurement": "Mean (±SD) bowel function", "setting": "[5]; ITT, Visit 4, naloxone 40 mg/day + oxycodone 40-80 mg/day", "value": "27.9 (±22.68)"}, {"measurement": "Mean (±SD) bowel function", "setting": "[5]; ITT, end of follow-up (oxycodone only), former 40 mg naloxone group", "value": "42.4 (±23.19)"}, {"measurement": "Mean (±SD) bowel function", "setting": "[5]; PP, end of maintenance, naloxone 10 mg/day + oxycodone 40-80 mg/day", "value": "39.4 (±23.44)"}, {"measurement": "Mean (±SD) bowel function", "setting": "[5]; PP, end of maintenance, naloxone 20 mg/day + oxycodone 40-80 mg/day", "value": "29.8 (±29.29)"}, {"measurement": "Mean (±SD) bowel function", "setting": "[5]; PP, end of maintenance, naloxone 40 mg/day + oxycodone 40-80 mg/day", "value": "29.6 (±28.34)"}, {"measurement": "Oral bioavailability", "setting": "[6]", "value": "< 3", "unit": "%"}, {"measurement": "Checked signs of withdrawal", "setting": "[7]; oxycodone-pump rats, 60-min observation", "value": "the rats underwent robust withdrawal"}, {"measurement": "Graded withdrawal signs (escape attempts, wet-dog shakes)", "setting": "[7]; oxycodone-pump rats, first 15-min", "value": "robust withdrawal that was short-lasting that ended within the first 15-min"}, {"measurement": "Graded withdrawal signs (escape attempts, wet-dog shakes)", "setting": "[7]; oxycodone-pump rats, later intervals up to 45- to 60-min", "value": "no longer significantly present throughout the remainder of the experiment"}, {"measurement": "Signs of withdrawal", "setting": "[7]; vehicle-pump rats", "value": "no signs of withdrawal were observed"}]}
